Data on 40 compounds can be found in US11186577B2, “Vasopressin receptor antagonists and products and methods related thereto” (BlackThorn Therapeutics, Inc., priority 2017, dated 2021).

A value given as a limit tells only on which side of the number the result lay.

The target in test [1] is human Arginine Vasopressin Receptor 1b (AVPR1b) (Homo sapiens (Human), UniProt P47901). As to the kind of experiment: Vasopressin V1B receptor antagonist assay (AVP-evoked calcium, FLIPR, CHO-AVPR1b cells). The class given is cell-based. The procedure: The purpose of the assay is to determine the inhibitory effect of synthesized compounds on the Vasopressin V1b receptor. The assay was performed in Chinese Hamster Ovary (CHO) cells expressing the human Arginine Vasopressin Receptor 1b (AVPR1b). Arginine Vasopressin (AVP) evokes an increase in intracellular calcium in CHO-AVPR1b cells which is measured in a fluorescence assay on the FLIPR^TETRA using calcium sensitive dyes. Test compounds were assessed for their ability to affect the magnitude of the response to AVP, with antagonists showing a concentration-dependent reduction in the AVP-mediated fluorescence.
human Arginine Vasopressin Receptor 1b (AVPR1b), sequence (P47901 whole entry): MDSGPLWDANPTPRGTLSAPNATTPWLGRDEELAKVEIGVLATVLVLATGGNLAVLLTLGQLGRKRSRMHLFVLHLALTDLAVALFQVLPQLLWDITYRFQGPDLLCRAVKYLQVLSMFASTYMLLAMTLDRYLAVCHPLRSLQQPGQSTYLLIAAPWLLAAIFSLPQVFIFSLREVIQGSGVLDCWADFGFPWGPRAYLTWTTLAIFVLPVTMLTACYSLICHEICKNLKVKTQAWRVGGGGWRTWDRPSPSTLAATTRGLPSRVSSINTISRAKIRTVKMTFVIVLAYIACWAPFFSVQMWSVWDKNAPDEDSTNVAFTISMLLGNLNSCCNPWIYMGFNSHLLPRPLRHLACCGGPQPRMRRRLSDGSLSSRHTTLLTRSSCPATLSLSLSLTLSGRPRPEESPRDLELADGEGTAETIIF
CHO-AVPR1b cells were maintained in routine culture in T175 Flasks at 37° C., 5% CO2. The growth medium consisted of Ham's F12 media supplemented with 10% v/v fetal bovine serum, 1× non-essential amino acids, and 0.4 mg/ml Geneticin G418.
Cells were harvested from T175 flasks when they were 80-90% confluent by first washing the cell monolayer with PBS and then dissociated using trypsin 0.05%/EDTA (3 mL for a T175 Flask). The flasks were incubated at room temperature until the cells detached. To the cell suspension, 10 ml of growth media was added and the cell density determined using the Vi-Cell automated cell counter. The cells were spun at 1000 rpm for 3 minutes, then the supernatant was carefully removed and discarded. The cell pellet was re-suspended at 6.0e^5 cells/ml in growth media. 25 μL of cells in growth media was dispensed into each well (15,000 cells per well) of a poly-D-lysine coated black, clear bottomed, 384-well plate. The plates were incubated at 37° C., 5% CO2 overnight.
At the start of each assay day, the potency of AVP is assessed and an EC80 concentration determined for subsequent compound profiling. Assays were performed using a two-step addition protocol on the FLIPR^TETRA; first addition of 5 μl of control or test compound at 10× final in assay buffer with 15 min incubation at 37° C., 5% CO2 followed by 10 μl of AVP at 6× final concentration in assay buffer. Changes in fluorescence were monitored for 3 min after both additions on the FLIPR^TETRA using 470-495 nm excitation and 515-575 nm emission wavelengths. The assay buffer consisted of HBSS (+Ca/+Mg) supplemented with 20 mM HEPES, and for the preparation of the AVP agonist only, 0.1% w/v bovine serum albumin. The assay was initiated by the removal of growth media from the cells and replacement with 45 μl of Calcium-6 dye (Molecular Devices) prepared at 1× in assay buffer. Cells were loaded with dye for 60-90 min at 37° C., 5% CO2 before initiation of the FLIPR^TETRA protocol. […] For compound profiling, test compounds were first serially diluted in DMSO (10-point curve, 1:3 dilutions) then diluted 33.3-fold in assay buffer prior to addition to the dye loaded cells on the FLIPR^TETRA. At the end of the incubation period 10 μl of AVP in assay buffer containing 0.1% BSA was added at the previously determined EC80 concentration.
In-plate controls for the assay include a Nelivaptan concentration-response curve as the reference V1b antagonist and an AVP concentration-response curve to confirm the reproducibility of the EC80 used for the compound challenge.

The target in test [2] is human Arginine Vasopressin Receptor V2 (AVPR2) (Homo sapiens (Human), UniProt P30518). As to the kind of experiment: Vasopressin V2 receptor antagonist assay (cAMP TR-FRET, 1321N1 cells). It counts as cell-based.
human Arginine Vasopressin Receptor V2 (AVPR2), sequence (P30518 whole entry): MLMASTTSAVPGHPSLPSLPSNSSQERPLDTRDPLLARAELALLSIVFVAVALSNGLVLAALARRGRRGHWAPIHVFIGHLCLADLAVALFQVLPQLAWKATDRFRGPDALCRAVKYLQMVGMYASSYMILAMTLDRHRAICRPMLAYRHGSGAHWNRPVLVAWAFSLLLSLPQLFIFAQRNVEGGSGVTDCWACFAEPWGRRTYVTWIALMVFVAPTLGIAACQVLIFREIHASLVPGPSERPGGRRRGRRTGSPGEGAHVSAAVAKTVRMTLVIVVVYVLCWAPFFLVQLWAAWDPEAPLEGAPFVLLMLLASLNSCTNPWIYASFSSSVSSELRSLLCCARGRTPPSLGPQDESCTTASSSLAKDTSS

One may read the IC50 as the midpoint of a concentration-inhibition curve. As to `Fc1ccc(N2CC3(CC(c4nnc5n4-c4ccc(Cl)cc4CN(C4CCC4)C5)C3)C2)nc1` [compound 42], the 50% inhibitory concentration (IC50) in test [1] is above 1000 nM; in test [2] it was below 100 nM.
With `CCN1Cc2cc(Cl)ccc2-n2c(nnc2C2CC3(C2)CN(c2ccccn2)C3)C1` [compound 45], the half-maximal inhibitory concentration (IC50) in test [1] was above 1000 nM; in test [2], 100 to 500 nM.
Regarding `CCN1Cc2cc(Cl)ccc2-n2c(nnc2C2CC3(C2)CN(c2cnccn2)C3)C1` [compound 46], the half-maximal inhibitory concentration (IC50) in test [1] and in test [2] was above 1000 nM throughout.
Take `CC(C)N1Cc2cc(Cl)ccc2-n2c(nnc2C2CC3(C2)CN(c2cnccn2)C3)C1` [compound 47]: the IC50 in test [1] and in test [2] was above 1000 nM throughout.
On to `CC(C)N1Cc2cc(Cl)ccc2-n2c(nnc2C2CC3(C2)CN(c2ccccn2)C3)C1` [compound 48], for which the IC50 was above 1000 nM in test [1] and 500 to 1000 nM in test [2].
For `CCN1Cc2cc(Cl)ccc2-n2c(nnc2C2CC3(C2)CN(c2ccc(F)cn2)C3)C1` [compound 49], the IC50 is above 1000 nM in test [1] and 100 to 500 nM in test [2].
Take `CC(C)N1Cc2cc(Cl)ccc2-n2c(nnc2C2CC3(C2)CN(c2ccc(F)cn2)C3)C1` [compound 50]: the figures for the IC50 in test [1] and in test [2] were above 1000 nM and 100 to 500 nM, respectively.
For the compound `FC(F)CN1Cc2cc(Cl)ccc2-n2c(nnc2C2CC3(C2)CN(c2ccccn2)C3)C1` [compound 52], the concentration for half-maximal inhibition (IC50) is above 1000 nM in test [1] and 100 to 500 nM in test [2].
As for `CC(C)N1Cc2cc(Cl)ccc2-n2c(nnc2C2CC3(C2)CN(c2ncccc2F)C3)C1` [compound 54], the IC50 was above 1000 nM in test [1] and 500 to 1000 nM in test [2].
As for `Clc1ccc2c(c1)CN(C1CC1)Cc1nnc(C3CC4(C3)CN(c3ccccn3)C4)n1-2` [compound 56], the IC50 was above 1000 nM in test [1] and 100 to 500 nM in test [2].
Take `Clc1ccc2c(c1)CN(C1COC1)Cc1nnc(C3CC4(C3)CN(c3ccccn3)C4)n1-2` [compound 57, 8-chloro-5-(oxetan-3-yl)-1-(2-(pyridin-2-yl)-2-azaspiro[3.3]heptan-6-yl)-5,6-dihydro-4H-benzo[f][1,2,4]triazolo[4,3-a][1,4]diazepine]: the IC50 in test [1] and in test [2] was above 1000 nM in each case.
In the case of `CC(CF)N1Cc2cc(Cl)ccc2-n2c(nnc2C2CC3(C2)CN(c2ccccn2)C3)C1` (centres unmarked) [compound 58], the IC50 in test [1] is above 1000 nM; in test [2], 500 to 1000 nM.
The matching figures for `FCCN1Cc2cc(Cl)ccc2-n2c(nnc2C2CC3(C2)CN(c2ccccn2)C3)C1` [compound 59]: above 1000 nM and 500 to 1000 nM.
Regarding `COC(=O)N1Cc2cc(Cl)ccc2-n2c(nnc2C2CC3(C2)CN(c2ccc(F)cn2)C3)C1` [compound 61], the results for the IC50 in test [1] and in test [2] were above 1000 nM and 100 to 500 nM, respectively.
Consider `CC(C)C(=O)N1Cc2cc(Cl)ccc2-n2c(nnc2C2CC3(C2)CN(c2ccc(F)cn2)C3)C1` [compound 63], for which the IC50 in test [1] was above 1000 nM; in test [2], 500 to 1000 nM.
Take `CC(=O)N1Cc2cc(Cl)ccc2-n2c(nnc2C2CC3(C2)CN(c2ccc(F)cn2)C3)C1` [compound 64]: the IC50 in test [1] was above 1000 nM; in test [2] it was 100 to 500 nM.
With `CCC(=O)N1Cc2cc(Cl)ccc2-n2c(nnc2C2CC3(C2)CN(c2ccccn2)C3)C1` [compound 67], the IC50 in test [1] and in test [2] was above 1000 nM each time.
Turning to `CCOC(=O)N1Cc2cc(Cl)ccc2-n2c(nnc2C2CC3(C2)CN(c2ccc(F)cn2)C3)C1` [compound 69], the IC50 was above 1000 nM in test [1] and 100 to 500 nM in test [2].
`COC(=O)N1Cc2cc(Cl)ccc2-n2c(nnc2C2CC3(C2)CN(c2ccccn2)C3)C1` [compound 70]: the figures for the half-inhibitory concentration (IC50) in test [1] and in test [2] were above 1000 nM and 100 to 500 nM, respectively.
For `CC(C)C(=O)N1Cc2cc(Cl)ccc2-n2c(nnc2C2CC3(C2)CN(c2ccccn2)C3)C1` [compound 71], the IC50 in test [1] and in test [2] was above 1000 nM throughout.
On to `CCC(=O)N1Cc2cc(Cl)ccc2-n2c(nnc2C2CC3(C2)CN(c2ccc(F)cn2)C3)C1` [compound 72], for which the IC50 in test [1] was above 1000 nM; in test [2], 100 to 500 nM.
In the case of `CC(CF)OC(=O)N1Cc2cc(Cl)ccc2-n2c(nnc2C2CC3(C2)CN(c2ccc(F)cn2)C3)C1` (centres unmarked) [compound 78], the IC50 in test [1] is above 1000 nM; in test [2], 100 to 500 nM.
Regarding `O=C(OC(CF)CF)N1Cc2cc(Cl)ccc2-n2c(nnc2C2CC3(C2)CN(c2ccc(F)cn2)C3)C1` [compound 79], the concentration for half-maximal inhibition (IC50) was above 1000 nM in test [1] and 500 to 1000 nM in test [2].
With `O=C(N1Cc2cc(Cl)ccc2-n2c(nnc2C2CC3(C2)CN(c2cnccn2)C3)C1)C1(F)CC1` [compound 81], the IC50 in test [1] and in test [2] was above 1000 nM in each case.
As for `O=C(OC1CC1)N1Cc2cc(Cl)ccc2-n2c(nnc2C2CC3(C2)CN(c2ccc(F)cn2)C3)C1` [compound 90], the IC50 in test [1] and in test [2] was above 1000 nM each time.
On to `O=C(N1Cc2cc(Cl)ccc2-c2c(C3CC4(C3)CN(c3cccnn3)C4)noc2C1)C(F)(F)F` [compound 105], for which the concentration for half-maximal inhibition (IC50) in test [1] and in test [2] was above 1000 nM each time.
In the case of `O=C(C(F)F)N1Cc2cc(Cl)ccc2-n2c(nnc2C2CC3(C2)CN(c2ccccn2)C3)C1` [compound 122], the IC50 is above 1000 nM in test [1] and 100 to 500 nM in test [2].
As for `O=C(C(F)F)N1Cc2cc(Cl)ccc2-n2c(nnc2C2CC3(C2)CN(C(=O)C2(F)CC2)C3)C1` [compound 134], the IC50 in test [1] and in test [2] was above 1000 nM each time.
`O=C(C1CC1)N1CC2(CC(c3nnc4n3-c3ccc(Cl)cc3CN(C(=O)C3(F)CC3)C4)C2)C1` [compound 136]: the IC50 in test [1] and in test [2] was above 1000 nM each time.
On to `COC(=O)N1Cc2cc(Cl)ccc2-n2c(C3CC4(C3)CN(c3ccc(F)cn3)C4)nnc2C1C` (centres unmarked) [compound 142, methyl 8-chloro-1-(2-(5-fluoropyridin-2-yl)-2-azaspiro[3.3]heptan-6-yl)-4-methyl-4H-benzo[f][1,2,4]triazolo[4,3-a][1,4]diazepine-5(6H)-carboxylate], for which the IC50 in test [1] and in test [2] was above 1000 nM throughout.
As for `CC(C)OC(=O)N1Cc2cc(Cl)ccc2-n2c(nnc2C2CC3(C2)CN(C(=O)C2CC2)C3)C1` [compound 153], the IC50 in test [1] and in test [2] was above 1000 nM each time.
Consider `CC(C)OC(=O)N1Cc2cc(Cl)ccc2-n2c(C3CC4(C3)CN(c3cnccn3)C4)nnc2C1C` (centres unmarked) [compound 164], for which the IC50 in test [1] and in test [2] was above 1000 nM throughout.
Turning to `COC(=O)N1Cc2cc(Cl)ccc2-n2c(C3CC4(C3)CN(c3cnccn3)C4)nnc2C1C` (centres unmarked) [compound 165], the IC50 in test [1] and in test [2] was above 1000 nM in each case.
As for `COC(=O)N1Cc2cc(Cl)ccc2-n2c(C3CC4(C3)CN(c3ncccn3)C4)nnc2C1C` (centres unmarked) [compound 166], the IC50 in test [1] and in test [2] was above 1000 nM throughout.
In the case of `CC(C)OC(=O)N1Cc2cc(Cl)ccc2-n2c(C3CC4(C3)CN(c3ncccn3)C4)nnc2C1C` (centres unmarked) [compound 167], the IC50 in test [1] and in test [2] was above 1000 nM in each case.
On to `CCOC(=O)N1Cc2cc(Cl)ccc2-n2c(C3CC4(C3)CN(c3ncccn3)C4)nnc2C1C` (centres unmarked) [compound 168], for which the IC50 in test [1] and in test [2] was above 1000 nM in each case.
With `CCOC(=O)N1Cc2cc(Cl)ccc2-n2c(C3CC4(C3)CN(c3ccc(F)cn3)C4)nnc2C1C` (centres unmarked) [compound 169], the IC50 in test [1] and in test [2] was above 1000 nM throughout.
Regarding `COC(=O)N1Cc2cc(Cl)ccc2-n2c(C3CC4(C3)CN(c3ncc(F)cn3)C4)nnc2C1C` (centres unmarked) [compound 170], the IC50 in test [1] and in test [2] was above 1000 nM throughout.
Turning to `CC1c2nnc(C3CC4(C3)CN(c3ncccn3)C4)n2-c2ccc(Cl)cc2CN1C(=O)OC1CC1` (centres unmarked) [compound 171], the IC50 in test [1] and in test [2] was above 1000 nM throughout.
As to `CCOC(=O)N1Cc2cc(Cl)ccc2-n2c(C3CC4(C3)CN(c3ncc(F)cn3)C4)nnc2C1C` (centres unmarked) [compound 172], the IC50 in test [1] and in test [2] was above 1000 nM in each case.
